Converted amounts (≈) assume the structure as drawn. Like-named read-outs stand apart in the source and are kept apart here.
Tests used:
[1] = target: E. coli UDP-N-acetylglucosamine enolpyruvoyl transferase, MurA (Escherichia coli, UniProt P0A749); assay: biochemical; conditions: (E) E. coli enzyme
Procedure, shortened: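 Compound in DMSO/water pre-incubated 10 min at 37° C with enzyme in 50 mM Tris/HCl pH 8.0, 5 mM DTT, 20% glycerol. After Tris/BME and assay buffer were added, OD340 was read at start. Reaction ran 1 hr at 37° C, then stop solution was added with 30 min colour development.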

staphylococci = assay: Minimum inhibitory concentration, microdilution broth method, staphylococci; type: cell-based; conditions: Mueller-Hinton broth, 18-22 hours at 35° C.; for MIC: Staphylococcus aureus
Procedure, shortened: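 Following NCCLS standard M7-A5, MICs were determined by microdilution in Mueller-Hinton broth, with 5% horse blood added for streptococci.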

[2] = target: T1, S. aureus Uridine-diphosphate-N-acetvimuramoyl: L-alanine lipase, MurC (Staphylococcus aureus, UniProt Q2FXJ0); assay: biochemical; conditions: (S) S. aureus enzyme; for IC50: read-out: MurC IC50 (converted)
T1 sequence (Q2FXJ0 1-437): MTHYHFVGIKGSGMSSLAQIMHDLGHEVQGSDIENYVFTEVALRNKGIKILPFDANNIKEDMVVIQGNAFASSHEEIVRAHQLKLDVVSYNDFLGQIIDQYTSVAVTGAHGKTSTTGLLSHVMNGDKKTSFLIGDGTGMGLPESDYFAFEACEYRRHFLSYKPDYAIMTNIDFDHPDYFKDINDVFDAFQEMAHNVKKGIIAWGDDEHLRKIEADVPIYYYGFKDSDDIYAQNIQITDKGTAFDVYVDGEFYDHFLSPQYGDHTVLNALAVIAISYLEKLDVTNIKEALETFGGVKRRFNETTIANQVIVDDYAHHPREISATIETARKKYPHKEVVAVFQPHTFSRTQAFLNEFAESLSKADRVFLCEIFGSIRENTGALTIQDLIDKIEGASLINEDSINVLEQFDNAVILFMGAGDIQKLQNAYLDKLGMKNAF
Protocol: S. aureus and E. coli Uridine-diphosphate-N-acetvimuramoyl: L-alanine lipase, MurC
Preparation of Enzyme Solution:
A 1 mg/mL stock solution of MurC is prepared in a buffer consisting of 20 mM Tris/HCl (pH 8.5) with 2.5 μM BME. The stock solution is further diluted with the buffer to give a final enzyme concentration of 100 μg/mL for the E. coli stock solution and 70 μg/mL for the S. aureus stock solution.
Preparation of Test Compound Solutions:
All test solutions are prepared in DMSO as 10 mg/mL, then diluted with 50 mM Tris/HCl (pH 8.5) to 100 μg/mL.
Preparation of Stop Solution:
The stop solution is prepared by stirring 1 part 4.2% ammonium molydbate in 4N HCl with 2 parts 0.045% malachite green for 30 min.
In this evaluation, the inhibitory activity of a test compound against MurC, the enzyme which catalyzes the third step of bacterial cell wall bioxynthesis is determined. Experiments are performed by adding 2.5 μl buffer, 2.5 μl 0.5M NH4SO2, 5 μl 2 μM L-Ala, 5 μl enzyme solution and 6.5 μl test compound solution to each well in a 96-well microplate. After a pre-incubation period of 10 mins. at 23° C., 3.75 μl of a 0.75 μM solution of UDP-MurNac is added to each well. Following an incubation period of 10 mins. at 37° C., 210 μl stop solution and 50 μl of a 34% w/v sodium citrate solution are added and color is allowed to develop for 10 mins. at 23° C. (Lanzetta et al., Analytical Biochemistry, 1979, 95) Optical density readings are taken at 660 nm using a Molecular Devices Spectra Max 250 with Soft Max software. Controls are performed using the same procedure and omitting the addition of UDP-MurNac. […]
Using these values the IC50 is determined by linear regression analysis.

[3] = S. aureus GC 1131, read-out: MIC S. aureus GC 1131
[4] = S. aureus GC 4543, read-out: MIC S. aureus GC 4543

Sequence of E. coli UDP-N-acetylglucosamine enolpyruvoyl transferase, MurA (P0A749 whole entry): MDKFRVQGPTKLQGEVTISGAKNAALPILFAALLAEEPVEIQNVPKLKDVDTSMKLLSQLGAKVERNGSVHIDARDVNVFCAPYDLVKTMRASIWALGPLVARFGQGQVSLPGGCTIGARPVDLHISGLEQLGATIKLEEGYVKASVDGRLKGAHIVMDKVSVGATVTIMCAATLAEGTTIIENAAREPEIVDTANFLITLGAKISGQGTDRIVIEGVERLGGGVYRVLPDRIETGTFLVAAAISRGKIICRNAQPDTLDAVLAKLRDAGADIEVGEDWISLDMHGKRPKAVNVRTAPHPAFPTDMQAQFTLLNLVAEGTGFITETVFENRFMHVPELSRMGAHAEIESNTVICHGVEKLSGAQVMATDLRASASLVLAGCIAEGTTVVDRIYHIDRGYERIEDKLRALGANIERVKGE

O=C1O/C(=C\c2ccc(-c3cccc(C(F)(F)F)c3)cc2)C(O)=C1c1cccc(C(F)(F)F)c1
MurA IC50 [1]: >25 (E) μg/mL
MIC S. aureus GC 1131 (staphylococci; S. aureus GC 1131): 4 µg/mL (≈ 8.4 µM)
MIC S. aureus GC 4543 (staphylococci; S. aureus GC 4543): 1 µg/mL (≈ 2.1 µM)
MurC IC50 [2]: 22 µg/mL

O=C1O/C(=C\c2ccc(-c3cc(Cl)cc(Cl)c3)cc2)C(O)=C1c1cc(Cl)cc(Cl)c1
MurA IC50 [1]: 1 (E) μg/mL
MIC (staphylococci; [3]): 4 µg/mL (≈ 8.37 µM)
MIC (staphylococci; [4]): 0.5 µg/mL (≈ 1.05 µM)
IC50 [2]: 48.1 µM

O=C1OC(=Cc2ccc(-c3ccccc3)cc2)C(O)=C1c1cccc(C(F)(F)F)c1 (mixture of isomers) [Example 11]
MurA IC50 [1]: 1 (E) μg/mL
MIC S. aureus GC 1131 (staphylococci; S. aureus GC 1131): 4 µg/mL
MIC S. aureus GC 4543 (staphylococci; S. aureus GC 4543): 2 µg/mL
MurC IC50 [2]: 5 µg/mL

Cc1ccc(C=C2OC(=O)C(c3ccc(Cl)cc3)=C2O)s1 (mixture of isomers) [Example 13]
MurA IC50 [1]: 0.5 (E) μg/mL
MIC S. aureus GC 1131 (staphylococci; S. aureus GC 1131): 64 µg/mL
MIC S. aureus GC 4543 (staphylococci; S. aureus GC 4543): >128 µg/mL
MurC IC50 [2]: 15 µg/mL

O=C1O/C(=C\c2ccc(-c3ccccc3)cc2)C(O)=C1c1cccc(C(F)(F)F)c1 [Example 10]
IC50 [1]: 2.45 µM
MIC (staphylococci; [3]): 4 µg/mL (≈ 9.79 µM)
MIC (staphylococci; [4]): 2 µg/mL (≈ 4.9 µM)
IC50 [2]: 17.1 µM

Cc1ccc(C=C2OC(=O)C(c3ccc(Cl)cc3)=C2O)s1 [Example 14]
MurA IC50 [1]: 5 (E) μg/mL
MIC S. aureus GC 1131 (staphylococci; S. aureus GC 1131): >128 µg/mL
MIC S. aureus GC 4543 (staphylococci; S. aureus GC 4543): >128 µg/mL
MurC IC50 [2]: 22 µg/mL

O=C1O/C(=C\C2CCCCC2)C(O)=C1c1ccc(Cl)cc1 [Example 15]
IC50 [1]: > 82 µM
MIC (staphylococci; [3]): 64 µg/mL (≈ 210 µM)
MIC (staphylococci; [4]): 64 µg/mL (≈ 210 µM)
IC50 [2]: > 82 µM

O=C1OC(=CC2CCCCC2)C(O)=C1c1cccc(C(F)(F)F)c1 [Example 16]
MurA IC50 [1]: >25 (E) μg/mL
MIC S. aureus GC 1131 (staphylococci; S. aureus GC 1131): 64 µg/mL (≈ 189 µM)
MIC S. aureus GC 4543 (staphylococci; S. aureus GC 4543): >128 µg/mL
MurC IC50 [2]: 22 µg/mL

O=C1O/C(=C\C2CCCCC2)C(O)=C1c1cccc(C(F)(F)F)c1 [Example 17]
MIC (staphylococci; [3]): 32 µg/mL (≈ 94.6 µM)
MIC (staphylococci; [4]): > 128 µg/mL
IC50 [2]: > 73.9 µM

O=C1O/C(=C\c2cccc(C(F)(F)F)c2)C(O)=C1c1ccc2ccccc2c1 [Example 42]
MurA IC50 [1]: 20 (E) μg/mL
MIC (staphylococci; [3]): 8 µg/mL (≈ 20.9 µM)
MIC (staphylococci; [4]): 8 µg/mL (≈ 20.9 µM)
IC50 [2]: 47.1 µM

O=C1O/C(=C\c2ccc(Cl)cc2)C(O)=C1c1ccc2ccccc2c1 [Example 43]
IC50 [1]: 57.3 µM
MIC (staphylococci; [3]): 8 µg/mL (≈ 22.9 µM)
MIC (staphylococci; [4]): 8 µg/mL (≈ 22.9 µM)
IC50 [2]: 60.2 µM

O=C1O/C(=C\c2cccc3ccccc23)C(O)=C1c1cccc2ccccc12 [Example 47]
IC50 [1]: > 68.6 µM
MIC (staphylococci; [3]): 16 µg/mL (≈ 43.9 µM)
MIC (staphylococci; [4]): 32 µg/mL (≈ 87.8 µM)

O=C1O/C(=C\C2CCCCC2)C(O)=C1c1ccc2ccccc2c1 [Example 51]
IC50 [1]: > 78 µM
MIC (staphylococci; [3]): > 128 µg/mL
MIC (staphylococci; [4]): 16 µg/mL (≈ 49.9 µM)
IC50 [2]: 62.4 µM

O=C1O/C(=C\c2ccc3ccccc3c2)C(O)=C1c1ccc2ccccc2c1 [Example 52]
IC50 [1]: > 68.6 µM
MIC (staphylococci; [3]): 16 µg/mL (≈ 43.9 µM)
MIC (staphylococci; [4]): 16 µg/mL (≈ 43.9 µM)
IC50 [2]: > 68.6 µM

O=C1O/C(=C\c2ccc(-c3ccccc3)cc2)C(O)=C1c1ccc(Cl)cc1 [Example 53]
IC50 [1]: > 66.7 µM
MIC (staphylococci; [3]): 16 µg/mL (≈ 42.7 µM)
MIC (staphylococci; [4]): 16 µg/mL (≈ 42.7 µM)
IC50 [2]: 18.7 µM

O=C1O/C(=C\c2ccc3ccccc3c2)C(O)=C1c1ccc(Cl)cc1 [Example 54]
IC50 [1]: > 71.7 µM
MIC (staphylococci; [3]): 8 µg/mL (≈ 22.9 µM)
MIC (staphylococci; [4]): 16 µg/mL (≈ 45.9 µM)
IC50 [2]: 31.5 µM

O=C1O/C(=C\c2ccc3ccccc3c2)C(O)=C1c1cccc2ccccc12 [Example 56]
IC50 [1]: > 68.6 µM
MIC (staphylococci; [3]): 16 µg/mL (≈ 43.9 µM)
MIC (staphylococci; [4]): 32 µg/mL (≈ 87.8 µM)
IC50 [2]: 30.2 µM

O=C1O/C(=C\c2ccc(-c3ccccc3)cc2)C(O)=C1c1cc(Cl)cc(Cl)c1 [Example 67]
IC50 [1]: 7.33 µM
MIC S. aureus GC 4543 (staphylococci; S. aureus GC 4543): 0.5 µg/mL (≈ 1.22 µM)
MIC (staphylococci; [3]): 1 µg/mL (≈ 2.44 µM)
IC50 [2]: 44 µM

O=C1O/C(=C\c2ccc(-c3ccccc3)cc2)C(O)=C1c1cccc(Cl)c1 [Example 69]
IC50 [1]: 21.3 µM
MIC (staphylococci; [3]): 2 µg/mL (≈ 5.34 µM)
MIC (staphylococci; [4]): 1 µg/mL (≈ 2.67 µM)
IC50 [2]: 13.3 µM

O=C1O/C(=C\C2CCCCC2)C(O)=C1c1ccc(-c2ccccc2)cc1 [Example 100]
IC50 [1]: > 72.2 µM
MIC (staphylococci; [3]): > 128 µg/mL
MIC (staphylococci; [4]): > 128 µg/mL
IC50 [2]: 46.2 µM

O=C1O/C(=C\c2cccnc2)C(O)=C1c1ccc(-c2ccccc2)cc1 [Example 101]
IC50 [1]: 67.4 µM
MIC (staphylococci; [3]): > 128 µg/mL
MIC (staphylococci; [4]): > 128 µg/mL
IC50 [2]: 67.4 µM

Cc1ccc(/C=C2\OC(=O)C(c3ccc(-c4ccccc4)cc3)=C2O)s1 [Example 104]
IC50 [1]: > 69.4 µM
MIC (staphylococci; [3]): 16 µg/mL (≈ 44.4 µM)
MIC (staphylococci; [4]): 32 µg/mL (≈ 88.8 µM)
IC50 [2]: 52.7 µM

O=C1O/C(=C\c2cccc(C(F)(F)F)c2)C(O)=C1c1ccc(-c2ccccc2)c(F)c1 [Example 106]
IC50 [1]: 21.1 µM
MIC (staphylococci; [3]): 2 µg/mL (≈ 4.69 µM)
MIC (staphylococci; [4]): 2 µg/mL (≈ 4.69 µM)
IC50 [2]: 28.1 µM

O=C1O/C(=C\c2cccc(-c3cccc(Cl)c3)c2)C(O)=C1c1cccc(Cl)c1 [Example 134]
MurA IC50 [1]: 5 (E) μg/mL
MIC (staphylococci; [3]): > 128 µg/mL
MIC (staphylococci; [4]): 1 µg/mL (≈ 2.44 µM)
IC50 [2]: 51.3 µM

O=C1O/C(=C\c2ccc(C(F)(F)F)cc2)C(O)=C1c1ccc(-c2ccccc2)cc1 [R=H, R1=4-(biphenyl), R2=4-CF3—C6H4]
IC50 [1]: 46.5 µM
MIC (staphylococci; [3]): 8 µg/mL (≈ 19.6 µM)
MIC (staphylococci; [4]): 8 µg/mL (≈ 19.6 µM)
IC50 [2]: 29.4 µM

O=C1O/C(=C\c2ccc(-c3ccc(Cl)cc3)cc2)C(O)=C1c1ccc(Cl)cc1 [R=H, R1=4-Cl—C6H4, R2=4-(4′-Cl-biphenyl)]
IC50 [1]: 14.7 µM
MIC (staphylococci; [3]): 16 µg/mL (≈ 39.1 µM)
MIC (staphylococci; [4]): 8 µg/mL (≈ 19.5 µM)

O=C1O/C(=C\c2cccc3ccccc23)C(O)=C1c1ccc(-c2ccccc2)cc1 [R=H, R1=4-biphenyl, R2=1-naphthyl]
IC50 [1]: 58.9 µM
MIC (staphylococci; [3]): 8 µg/mL (≈ 20.5 µM)
MIC (staphylococci; [4]): 4 µg/mL (≈ 10.2 µM)
IC50 [2]: 48.7 µM

From patent US7495027B2, “3-aryl-4-hydroxyfuranone compounds and the human and animal health use thereof” (Wyeth, priority 2003, dated 2009)
